Test results published in ChEMBL document CHEMBL1201862, “PubChem BioAssay data set” (2004).
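All cell lines were grown in 96-well plates and treated with compound for 48 hours. Abbreviation: GI50, concentration required for 50% inhibition of growth.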 Active and inactive are the calls of the source. Cut-off read from the data, not from the text of the source: active = GI50 up to about 1.1 µM and inactive = higher.

How the values were obtained:
Assay in all cases: inhibition of tumour cell growth, NCI panel, 48 h
[1] = test system: HCT-15
[2] = test system: Malme-3M
[3] = test system: UACC-257
[4] = test system: OVCAR-3
[5] = test system: SR
[6] = test system: PC-3
[7] = test system: T47D
[8] = test system: MCF7
[9] = test system: A549
[10] = test system: CCRF-CEM
[11] = test system: MOLT-4
[12] = test system: U-251
[13] = test system: MDA-N
[14] = test system: ACHN
[15] = test system: UO-31
[16] = test system: IGROV-1
[17] = test system: OVCAR-4
[18] = test system: A498
[19] = test system: UACC-62
[20] = test system: HT-29

Measured: GI50

COc1ccc2o/c(=N/c3ccccc3)c(C(N)=O)cc2c1
> 100 µM: [1]
inactive: [2] > 100 µM | [3] > 100 µM | [4] > 100 µM | [5] > 100 µM | [6] > 100 µM | [7] > 100 µM | [8] 45.9 µM | [9] > 55.3 µM | [10] > 100 µM | [11] > 100 µM | [12] > 79.1 µM | [13] 6.84 µM | [14] 19 µM | [15] > 36.7 µM | [16] > 70.6 µM | [17] > 100 µM

COc1ccccc1NC(=S)Nc1cc(C)ccn1
inactive: [18] > 100 µM | [2] > 100 µM | [3] > 100 µM | [4] > 100 µM | [5] > 100 µM | [6] > 100 µM | [7] > 100 µM | [8] > 100 µM | [9] > 100 µM | [10] > 100 µM | [11] > 100 µM | [12] > 100 µM | [13] > 100 µM | [19] > 100 µM | [20] > 100 µM | [15] > 100 µM | [16] 74 µM | [17] > 100 µM
> 100 µM: [1]

COc1cc2c(cc1OCCCC(=O)Nc1cc(C(=O)NCCCN(C)C)n(C)n1)N=CC1CCCN1C2=O (configuration not stated)
active: [5] 0.213 µM | [11] 0.347 µM
inactive: [18] 2.82 µM | [2] 6.97 µM | [3] 7.45 µM | [4] 27.5 µM | [6] 17.1 µM | [7] 9.66 µM | [8] 10.1 µM | [9] > 19.7 µM | [12] 8.77 µM | [13] 23.3 µM | [19] 4.24 µM | [14] 6.44 µM | [20] 7.31 µM | [15] 8.65 µM | [16] 6.7 µM | [17] 6.44 µM
8.55 µM: [1]

COC(=O)C1=C(C)C=C(N2CCOCC2)C(C(=O)OC)C1c1ccccc1 (configuration not stated)
> 10 µM: [1]
inactive: [18] > 10 µM | [2] > 10 µM | [3] > 10 µM | [4] > 10 µM | [6] > 10 µM | [7] > 10 µM | [8] > 10 µM | [9] > 10 µM | [10] > 10 µM | [11] > 10 µM | [12] > 10 µM | [13] > 10 µM | [14] > 10 µM | [20] > 10 µM | [15] > 10 µM | [16] > 10 µM | [17] > 10 µM

[N-]=[N+]=C(C(=O)OCC#CCOC(=O)C(=[N+]=[N-])S(=O)(=O)c1ccccc1)S(=O)(=O)c1ccccc1
inactive: [18] > 10 µM | [2] > 10 µM | [3] > 10 µM | [4] > 10 µM | [6] > 10 µM | [7] > 10 µM | [8] > 10 µM | [9] > 10 µM | [10] > 10 µM | [11] > 10 µM | [12] > 10 µM | [13] > 10 µM | [19] > 10 µM | [14] > 10 µM | [20] > 10 µM | [16] > 10 µM | [17] > 10 µM
> 10 µM: [1]
active: [15] 0.2 µM

COC(CO[Si](C)(C)N[Si](C)(C)OCC(OC)c1ccccc1)c1ccccc1 (configuration not stated)
inactive: [18] > 100 µM | [3] > 100 µM | [4] > 100 µM | [5] > 100 µM | [6] > 100 µM | [7] > 100 µM | [8] > 100 µM | [9] > 100 µM | [10] > 100 µM | [11] > 100 µM | [12] > 100 µM | [13] > 100 µM | [19] > 100 µM | [14] > 100 µM | [15] > 100 µM | [16] > 100 µM | [17] > 100 µM
> 100 µM: [1]

c1ccc2cc(OCC3CO3)c(OCC3CO3)cc2c1 (configuration not stated)
4.63 µM: [1]
inactive: [18] 2 µM | [2] 7.64 µM | [3] 10.2 µM | [4] 13.4 µM | [6] 12.7 µM | [7] 10.9 µM | [9] 3.68 µM | [12] 2.9 µM | [13] 10.1 µM | [19] 2.84 µM | [14] 2.18 µM | [20] 7.05 µM | [15] 2.37 µM | [16] 1.3 µM
active: [5] 0.333 µM | [8] 0.388 µM | [10] 0.16 µM | [11] 0.562 µM

CCCC(Sc1nc(N)nc2nc[nH]c12)C(=O)O (configuration not stated)
inactive: [18] > 100 µM | [2] > 100 µM | [3] > 100 µM | [4] > 100 µM | [6] > 100 µM | [7] > 100 µM | [8] 62.4 µM | [9] > 100 µM | [10] 81.5 µM | [11] 33.2 µM | [12] > 100 µM | [13] 47.5 µM | [19] 36.6 µM | [14] > 100 µM | [20] 78.5 µM | [15] 65.2 µM | [16] > 100 µM | [17] > 100 µM
91.6 µM: [1]

CC(C)c1cc(Cl)nc(Cl)n1
> 100 µM: [1]
inactive: [18] > 100 µM | [3] > 100 µM | [4] > 100 µM | [5] > 100 µM | [6] > 100 µM | [7] > 100 µM | [8] > 100 µM | [9] > 100 µM | [10] > 100 µM | [11] > 100 µM | [12] > 100 µM | [13] > 100 µM | [19] > 100 µM | [14] > 100 µM | [20] > 100 µM | [15] > 100 µM | [16] > 100 µM | [17] > 100 µM

NCCCN(CCCCN(CCCN)Cc1ccccc1)Cc1ccccc1
> 100 µM: [1]
inactive: [18] > 100 µM | [2] 33.3 µM | [3] 62.1 µM | [7] > 100 µM | [8] 25.1 µM | [9] 74.5 µM | [10] 30.3 µM | [11] 20.1 µM | [12] 42.3 µM | [13] 18.4 µM | [19] > 100 µM | [14] 32.4 µM | [20] 17.3 µM | [15] 26.1 µM | [16] 17.1 µM | [17] 28.6 µM

CC(O)C(O)C(O)C(/C=N\Nc1ccccc1)=N/Nc1ccccc1 (configuration not stated)
inactive: [18] 9.02 µM | [2] 20 µM | [4] 8.55 µM | [5] 17.3 µM | [6] 15.8 µM | [7] 6.21 µM | [8] 10.5 µM | [9] 11.4 µM | [10] 18.5 µM | [11] 18.7 µM | [12] 13.9 µM | [13] 12.6 µM | [19] 10 µM | [14] 10.8 µM | [20] 15.9 µM | [15] 12.2 µM | [16] 8.49 µM
12.4 µM: [1]

Cc1ccc2nc(-c3ccc(NC(=O)c4ccc(N)cc4)c(S(=O)(=O)O)c3)sc2c1
inactive: [18] > 100 µM | [2] > 100 µM | [3] > 100 µM | [4] > 100 µM | [6] > 100 µM | [7] > 100 µM | [8] > 100 µM | [9] > 100 µM | [10] > 100 µM | [11] > 100 µM | [12] > 100 µM | [13] > 100 µM | [19] > 100 µM | [14] > 100 µM | [20] > 100 µM | [15] > 100 µM | [16] > 100 µM | [17] > 100 µM
> 100 µM: [1]

C/C(=N\NC(=S)N(C)C)c1ccccn1
< 0.01 µM: [1]
active: [18] 0.519 µM | [2] 0.219 µM | [3] < 0.01 µM | [4] < 0.01 µM | [6] < 0.01 µM | [7] < 0.01 µM | [8] < 0.01 µM | [9] 0.0413 µM | [10] < 0.01 µM | [11] < 0.01 µM | [12] < 0.01 µM | [13] 0.305 µM | [19] < 0.0124 µM | [14] < 0.0122 µM | [20] < 0.01 µM | [15] 0.122 µM | [16] < 0.01 µM | [17] < 0.01 µM

O=[N+]([O-])c1ccc(-c2nnc(C34CC5CC(CC(C5)C3)C4)o2)cc1
inactive: [18] > 100 µM | [2] > 100 µM | [4] > 100 µM | [5] > 100 µM | [6] > 100 µM | [7] > 100 µM | [9] > 100 µM | [10] > 100 µM | [11] > 100 µM | [12] > 100 µM | [13] > 100 µM | [19] > 100 µM | [14] > 100 µM | [20] > 100 µM | [15] > 100 µM | [16] > 100 µM | [17] > 100 µM
> 100 µM: [1]

O=C(/C=C/c1ccc(O)c(O)c1)Oc1ccccc1
2.74 µM: [1]
inactive: [18] 55 µM | [3] 22.8 µM | [4] 6.98 µM | [6] 17.1 µM | [7] 9.71 µM | [8] 12.2 µM | [9] 15.3 µM | [12] 12.6 µM | [13] 16.1 µM | [19] 13.2 µM | [14] 8.45 µM | [20] 11.3 µM | [15] 7.43 µM | [16] 4.19 µM | [17] 15.2 µM
active: [5] 0.434 µM | [10] 0.292 µM | [11] 0.268 µM
